A short description of data set [1]: Brain levels of L-DOPA and dopamine after intranasal dosing. Conditions: rat, 1.2 mg/kg, 2 hours post-dosing. The text has this:
All brain levels are reported after subtraction of basal levels.

The conditions of data set [2]: after intranasal L-DOPA administration, Nedorubov et al; cited from earlier work.
Data set [3] is described as follows: Plasma pharmacokinetics of L-DOPA and dopamine after intranasal dosing. Conditions: rat, 1.2 mg/kg.

The values below come from patent publication US20250009676A1, “COMPOSITIONS AND METHODS FOR LEVODOPA DELIVERY” (PURDUE PHARMA L.P., priority 2021, published 2025).

Entries after “also recorded” stand apart in the source; their conditions may differ.

Take `N[C@@H](Cc1ccc(O)c(O)c1)C(=O)O` [crystal L-DOPA, levodopa]: in data set [1], the “dopamine levels in the brain above basal levels (in words)” value is “below the LOQ; also recorded: below the level of detection”. In data set [2], the “Cmax for L-DOPA in rat brain tissue” value was 16.94±1.52. The “dopamine plasma concentration, single animals with a quantifiable value” in data set [3] (GCPQ-L-DOPA: one rat, t=0.083 hours) is 25 to 29 ng/mL. Further, the dopamine plasma concentration result in data set [3] (limit of quantification 25 ng/ml, nearly all samples) is on record as “below the limit of quantification”. In addition, in data set [3] (plasma), the “maximum plasma concentration of L-DOPA” value came out at 53.5 ± 22.7 ng/mL and the “time of maximum L-DOPA plasma concentration (Tmax)” value was determined as 15 min.
